Measurements taken from ChEMBL document CHEMBL4308911, “Elucidating the mode of action for thiophene-based organic D-π-A sensitizers for use in photodynamic therapy” (Bioorg Med Chem, 2019).
Calls of active or inactive are those of the source. The calls are words filed in the database; no cut-off is given here.

Assays:
[1] = Drug uptake mitochondria of in human HeLa cells at 10 uM after 1 hr by Mito tracker red-based confocal microscopic analysis; assay type: ADME
HeLa = assay: Phototoxicity against human HeLa cells assessed as reduction in cell viability preincubated for 1 hr followed by LED light irradiation at 8 +/- 0.5 mW/cm2 for 15 mins and measured after 48 hrs by MTT assay; assay type: functional, cell-based; conditions: light or radiation study
[2] = Drug uptake in human HeLa cells at 20 uM after 1 hr in presence of lipid raft inhibitor methyl-beta-cyclodextrin by fluorescence assay; assay type: ADME, cell-based
[3] = Drug uptake lysosome of in human HeLa cells at 10 uM after 1 hr by Lyso tracker red-based confocal microscopic analysis; assay type: ADME, subcellular
[4] = Drug uptake in human HeLa cells at 20 uM at 37 degC after 1 hr by fluorescence assay; assay type: ADME, cell-based
[5] = Induction of singlet oxygen production irradiated with 425 to 479 nm Nd:YAG laser light measured after 100 nanoseconds post irradiation; assay type: functional
[6] = Dark toxicity against human HeLa cells assessed as reduction in cell viability after 48 hrs by MTT assay; assay type: cell-based
[7] = Drug uptake in human HeLa cells at 20 uM at 4 degC after 1 hr by fluorescence assay; assay type: ADME, cell-based
[8] = Drug uptake in human HeLa cells at 20 uM after 1 hr in presence of sucrose by fluorescence assay; assay type: ADME, cell-based
[9] = Aggregation property of the compound in potassium phosphate buffer assessed as particle size at 10 uM by DLS method; assay type: physicochemical
[10] = Drug uptake in human HeLa cells at 20 uM by fluorescence assay; assay type: ADME, cell-based; conditions: TDE = time-dependent effect

Row | Drug uptake [1] | Drug uptake [2] | Drug uptake [3] | Drug uptake [4] | Drug uptake [7] | Drug uptake [8] | Activity [9] | Drug uptake [10] | SMILES | IC50 (HeLa) [µM] | Activity [5] | IC50 at 48 h [6] [µM]
1 | Active | Not Active | Active | Active | Not Active | Not Active | 175 nm | Tde | N#C/C(=C\c1ccc(-c2ccc(-c3ccc(N(c4ccccc4)c4ccccc4)cc3)s2)s1)C(=O)O | 0.21 | Active | 21.9
2 | Not Active |  | Not Active |  |  |  | Not Active |  | COC(=O)/C(C#N)=C/c1ccc(-c2ccc(-c3ccc(N(c4ccccc4)c4ccccc4)cc3)s2)s1 | > 100 |  | > 100
3 | Not Active |  | Not Active |  |  |  | Not Active |  | O=Cc1ccc(-c2ccc(-c3ccc(N(c4ccccc4)c4ccccc4)cc3)s2)s1 | 9.5 |  | 88.9
4 | Active | Active | Active | Active | Not Active | Not Active | 1175 nm |  | N#C/C(=C\c1ccc(-c2ccc(-c3ccc(N(c4ccccc4)c4ccccc4)cc3)s2)s1)C(N)=O | 8.8 |  | 63.1
5 | Not Active |  | Not Active |  |  |  | Not Active |  | CC(C)(C)OC(=O)/C(C#N)=C/c1ccc(-c2ccc(-c3ccc(N(c4ccccc4)c4ccccc4)cc3)s2)s1 | > 100 |  | > 100
